Laboratory results published in patent US5639726A, “Peptide mediated enhancement of thrombolysis methods and compositions” (The Regents of the University of Michigan, priority 1994, dated 1997).
One block for each substance: values may come before it. Ends that are not written are not given here.

What was measured:
PAI-1 [1] = target: T1, PAI-1 (Homo sapiens, UniProt P05121); experiment: Kinetics of peptide annealing: residual PAI inhibitory activity assayed with β-trypsin and S-2222; format: biochemical; conditions: for IC50: FIG. 2, read-out: IC50 for the inactivation of PAI-1; for kobs / k: 25° C.; for half-life of PAI-1 decreased to: summary of Example 2, peptide concentration not given
T1 construct: made in house; host or cells: E. coli (vector pET3a)
T1 sequence (P05121 24-402): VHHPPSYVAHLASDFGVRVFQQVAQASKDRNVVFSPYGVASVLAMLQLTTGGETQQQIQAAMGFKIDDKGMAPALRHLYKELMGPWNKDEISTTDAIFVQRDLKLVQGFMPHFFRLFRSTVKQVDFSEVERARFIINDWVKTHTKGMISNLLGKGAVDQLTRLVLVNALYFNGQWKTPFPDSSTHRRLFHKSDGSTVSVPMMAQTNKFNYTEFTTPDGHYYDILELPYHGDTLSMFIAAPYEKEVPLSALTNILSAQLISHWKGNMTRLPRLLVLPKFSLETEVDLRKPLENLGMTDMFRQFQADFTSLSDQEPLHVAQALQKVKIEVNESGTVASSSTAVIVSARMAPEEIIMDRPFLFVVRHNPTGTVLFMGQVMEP
Method: PAI-1 (6.4 μM) was incubated with increasing concentrations of each peptide at 23° C. and the (T1/2) of PAI-1 inactivation was determined by measuring the PAI-1 activity remaining over time.
Peptides were dissolved in 1 mM HCl+1% TWEEN-80 (the three PAI peptides) (SEQ ID NOS: 1-3), or in 0.1M HEPES (SEQ ID NOS: 4-5), 0.1M NaCl, 0.1% PEG-8000, pH […] (the two consensus peptides). Peptides were annealed to active PAI by incubation of active PAI in 0.1M HEPES, 0.1M NaCl, 0.1% PEG-8000, pH 7.4 with a peptide in its solvent. Ten percent of the final incubation mixture consisted of the peptide solvent. Incubation was carried out at 25° C. until no PAI inhibitory activity remained as determined by kinetics rate assays with trypsin, described below. The final concentration of PAI in the incubation mixture was either 0.9 μM (for kinetics assays) or 6.3 μM (for gels and purification). The peptide concentrations varied greatly due to the individual solubilities and rates of insertion of each peptide. These concentrations are given in the legends of the appropriate figures.
During annealing of 0.9 μM PAI with a peptide, the residual inhibitory activity of PAI was measured after varying incubation times by assaying an aliquot of the sample with β-trypsin. Trypsin (1 nM final concentration) was added to the chromogenic substrate S-2222 (950 μM) with 27 nM PAI sample. The absorbance at 405 nm was measured continuously for at least 12.5 min in a Shimadzu UV-265 UV-visible spectrophotometer. The pseudo-first order rate constant of trypsin is an indirect measure of the amount of PAI that has lost inhibitory activity due either to annealing or to becoming latent. The rate constant of controls containing the peptide solvent but no peptide was subtracted from that of the experimental assays in order to correct for the effect of the simultaneous change of PAI from the active to the latent state.

PAI-1 [2] = target: T1, PAI-1; experiment: as above; format: biochemical; conditions: for lowest PAI-1 functional half-life obtained with increasing concentrations of peptide: 9.0 hr in the absence of peptide
PAI-1 [3] = target: T1, PAI-1; experiment: Native gel electrophoresis of PAI incubated with peptide; format: binding
Method: SDS-polyacrylamide gel electrophoresis (SDS-PAGE) under nonreducing conditions was carried out according to the method of Laemmli (Laemmli, 1970) on 10% gels. Native gel electrophoresis with 5% gels was carried out by omitting SDS and boiling from Laemmli's method. All gels were stained with Coomassie brilliant blue. Gels of PAI-peptide samples were scanned with an LKB Ultroscan XL Laser Densitometer to determine the relative amounts of peptide-annealed and latent PAI.
Four of the five peptides have a net negative charge due to glutamic acid residues and the free carboxy terminus (FIG. 1). The wtPAI 8-mer has a net -1 charge (the carboxy terminus). The V→E PAI 8-mer (SEQ ID NO:3) and consensus 8-mer (SEQ ID NO:4) each have a -2 charge (the glutamic acid residue and the carboxyl group). […] The PAI 14-mer (SEQ ID NO:1) is uncharged since it contains no glutamic acid and the arginine and carboxyl groups neutralize each other. Because of the negative charges of 4 of the peptides, native gels of PAI annealed to these peptides should show a band which migrates more quickly than the band representative of free active PAI. Similarly, if one of these peptides is incubated with PAI but fails to form a strong interaction with PAI, native gels should show a band which migrates identically to the free PAI.

normal human plasma = experiment: Activated partial thromboplastin time (APTT) in normal human plasma, with porcine coronary thrombus extract; format: biochemical
Method: Platelets contain several factors that inhibit heparin, including platelet factor 4, heparatinase, and histidine-rich glycoprotein. In an attempt to study potential heparin resistance within the microenvironment of the coronary thrombus the coronary thrombi previously analyzed for PAI-1 content were also assessed for their capacity to inhibit heparin in vitro (Eitzman et al., 1994). Pharmaceutical grade, unfractionated heparin was added to normal human plasma in sufficient quantity (0.12 U/mL) to prolong the activated partial thromboplastin time (APTT) to approximately 2× control. APTT determinations were then repeated after the addition of 2.5 μL of thrombus extract per 100 μL of heparinized plasma.
Similar experiments were also performed using recombinant hirudin as anticoagulant. In these experiments, hirudin (0.17 μg/mL) was used to prolong the APTT to approximately twice control values. However, unlike the case with heparin, thrombus extracts had no effect on capacity of hirudin to prolong the APTT (FIG. 9a).

IC50 (PAI-1 [1]): 1600 µM
kobs (PAI-1 [1]; peptide 2.5 mM): .21 h⁻¹
kobs (PAI-1 [1]; peptide 5.04 mM): .38 h⁻¹
half-life of PAI-1 decreased to (PAI-1 [1]): 1.3 h
lowest PAI-1 functional half-life obtained with increasing concentrations of peptide (PAI-1 [2]; 25° C.): 1.2 h
k (PAI-1 [2]; peptide 1.5 mM, 25° C.): .024 M⁻¹ s⁻¹
kobs (PAI-1 [2]; peptide 1.5 mM, 25° C.): .13 h⁻¹
t1/2 of PAI-1 inactivation (PAI-1 [2]; peptide 1.5 mM, 25° C.): 5.4 h
k (PAI-1 [2]; peptide 2.5 mM, 25° C.): .024 M⁻¹ s⁻¹
t1/2 of PAI-1 inactivation (PAI-1 [2]; peptide 2.5 mM, 25° C.): 3.3 h
k (PAI-1 [2]; peptide 3.5 mM, 25° C.): .022 M⁻¹ s⁻¹
kobs (PAI-1 [2]; peptide 3.5 mM, 25° C.): .28 h⁻¹
t1/2 of PAI-1 inactivation (PAI-1 [2]; peptide 3.5 mM, 25° C.): 2.5 h
k (PAI-1 [2]; peptide 5.04 mM, 25° C.): .021 M⁻¹ s⁻¹
t1/2 of PAI-1 inactivation (PAI-1 [2]; peptide 5.04 mM, 25° C.): 1.8 h
k (PAI-1 [2]; peptide 7 mM, 25° C.): .017 M⁻¹ s⁻¹
kobs (PAI-1 [2]; peptide 7 mM, 25° C.): .44 h⁻¹
t1/2 of PAI-1 inactivation (PAI-1 [2]; peptide 7 mM, 25° C.): 1.6 h
k (PAI-1 [2]; peptide 9 mM, 25° C.): .017 M⁻¹ s⁻¹
kobs (PAI-1 [2]; peptide 9 mM, 25° C.): .54 h⁻¹
t1/2 of PAI-1 inactivation (PAI-1 [2]; peptide 9 mM, 25° C.): 1.3 h
k (PAI-1 [2]; peptide 11 mM, 25° C.): .015 M⁻¹ s⁻¹
kobs (PAI-1 [2]; peptide 11 mM, 25° C.): .58 h⁻¹
t1/2 of PAI-1 inactivation (PAI-1 [2]; peptide 11 mM, 25° C.): 1.2 h
Substance: Ac-TEAAAATG [SEQ ID NO: 4, Thr-Glu-Ala-Ala-Ala-Ala-Thr-Gly]

kobs (PAI-1 [1]; peptide 1 mM): .097 h⁻¹
half-life of PAI-1 decreased to (PAI-1 [1]): 0.2 h
half-life of PAI inactivation (PAI-1 [2]; 0.9 μM PAI, 1.2 mM peptide): about 12 min
k (PAI-1 [2]; peptide 1 mM, 25° C.): .027 M⁻¹ s⁻¹
t1/2 of PAI-1 inactivation (PAI-1 [2]; peptide 1 mM, 25° C.): 7.2 h
k (PAI-1 [2]; peptide 1.3 mM, 25° C.): .75 M⁻¹ s⁻¹
kobs (PAI-1 [2]; peptide 1.3 mM, 25° C.): 3.4 h⁻¹
t1/2 of PAI-1 inactivation (PAI-1 [2]; peptide 1.3 mM, 25° C.): .20 h
Substance: Ac-TEAAAATGAAATGR [SEQ ID NO: 5, TEAAAATGAAATGR]

electrophoretic mobility of active PAI incubated with peptide, native gel (PAI-1 [3]): Only a single major band
IC50 (PAI-1 [1]): 1600 µM
kobs (PAI-1 [1]; peptide .05 mM): .090 h⁻¹
k (PAI-1 [1]; peptide .1 mM): .35 M⁻¹ s⁻¹
kobs (PAI-1 [1]; peptide .246 mM): .33 h⁻¹
k (PAI-1 [1]; peptide .4 mM): .33 M⁻¹ s⁻¹
kobs (PAI-1 [1]; peptide .6 mM): .98 h⁻¹
half-life of PAI-1 decreased to (PAI-1 [1]): 1.2 h
lowest PAI-1 functional half-life obtained with increasing concentrations of peptide (PAI-1 [2]; 25° C.): 1.2 h
k (PAI-1 [2]; peptide .05 mM, 25° C.): .50 M⁻¹ s⁻¹
t1/2 of PAI-1 inactivation (PAI-1 [2]; peptide .05 mM, 25° C.): 7.7 h
kobs (PAI-1 [2]; peptide .1 mM, 25° C.): .13 h⁻¹
t1/2 of PAI-1 inactivation (PAI-1 [2]; peptide .1 mM, 25° C.): 5.5 h
k (PAI-1 [2]; peptide .15 mM, 25° C.): .37 M⁻¹ s⁻¹
kobs (PAI-1 [2]; peptide .15 mM, 25° C.): .20 h⁻¹
t1/2 of PAI-1 inactivation (PAI-1 [2]; peptide .15 mM, 25° C.): 3.5 h
k (PAI-1 [2]; peptide .2 mM, 25° C.): .40 M⁻¹ s⁻¹
kobs (PAI-1 [2]; peptide .2 mM, 25° C.): .28 h⁻¹
t1/2 of PAI-1 inactivation (PAI-1 [2]; peptide .2 mM, 25° C.): 2.4 h
k (PAI-1 [2]; peptide .246 mM, 25° C.): .37 M⁻¹ s⁻¹
t1/2 of PAI-1 inactivation (PAI-1 [2]; peptide .246 mM, 25° C.): 2.1 h
k (PAI-1 [2]; peptide .3 mM, 25° C.): .39 M⁻¹ s⁻¹
kobs (PAI-1 [2]; peptide .3 mM, 25° C.): .42 h⁻¹
t1/2 of PAI-1 inactivation (PAI-1 [2]; peptide .3 mM, 25° C.): 1.7 h
kobs (PAI-1 [2]; peptide .4 mM, 25° C.): .48 h⁻¹
t1/2 of PAI-1 inactivation (PAI-1 [2]; peptide .4 mM, 25° C.): 1.4 h
k (PAI-1 [2]; peptide .5 mM, 25° C.): .44 M⁻¹ s⁻¹
kobs (PAI-1 [2]; peptide .5 mM, 25° C.): .79 h⁻¹
t1/2 of PAI-1 inactivation (PAI-1 [2]; peptide .5 mM, 25° C.): .87 h
k (PAI-1 [2]; peptide .6 mM, 25° C.): .45 M⁻¹ s⁻¹
t1/2 of PAI-1 inactivation (PAI-1 [2]; peptide .6 mM, 25° C.): .71 h
Substance: Ac-TEASSSTA [SEQ ID NO: 3, Thr-Glu-Ala-Ser-Ser-Ser-Thr-Ala]

electrophoretic mobility of active PAI incubated with peptide, native gel (PAI-1 [3]): two bands
IC50 (PAI-1 [1]): 230 µM
half-life of PAI-1 decreased to (PAI-1 [1]): 0.717 h
lowest PAI-1 functional half-life obtained with increasing concentrations of peptide (PAI-1 [2]; 25° C.): 0.7 h
t1/2 of PAI-1 (PAI-1 [2]; peptide 55 μM, 25° C.): over 400 min
k (PAI-1 [2]; peptide .015 mM, 25° C.): 1.7 M⁻¹ s⁻¹
kobs (PAI-1 [2]; peptide .015 mM, 25° C.): .093 h⁻¹
t1/2 of PAI-1 inactivation (PAI-1 [2]; peptide .015 mM, 25° C.): 7.5 h
k (PAI-1 [2]; peptide .025 mM, 25° C.): .99 M⁻¹ s⁻¹
kobs (PAI-1 [2]; peptide .025 mM, 25° C.): .089 h⁻¹
t1/2 of PAI-1 inactivation (PAI-1 [2]; peptide .025 mM, 25° C.): 7.8 h
k (PAI-1 [2]; peptide .045 mM, 25° C.): 6.9 M⁻¹ s⁻¹
kobs (PAI-1 [2]; peptide .045 mM, 25° C.): 1.1 h⁻¹
t1/2 of PAI-1 inactivation (PAI-1 [2]; peptide .045 mM, 25° C.): .62 h
k (PAI-1 [2]; peptide .064 mM, 25° C.): 42 M⁻¹ s⁻¹
kobs (PAI-1 [2]; peptide .064 mM, 25° C.): 9.6 h⁻¹
t1/2 of PAI-1 inactivation (PAI-1 [2]; peptide .064 mM, 25° C.): .072 h
Substance: Ac-TVASSSTA [SEQ ID NO: 2, Thr-Val-Ala-Ser-Ser-Ser-Thr-Ala]

Substance: heparin
shortening of the APTT by thrombus extract (normal human plasma; 2.5 μL of thrombus extract per 100 μL of heparinized plasma): approximately 20 seconds
prolongation of the APTT (normal human plasma; heparin 0.12 U/mL): approximately 2 × control

Substance: hirudin
effect of thrombus extracts on capacity to prolong the APTT (normal human plasma; hirudin 0.17 μg/mL): no effect
prolongation of the APTT (normal human plasma; hirudin 0.17 μg/mL): approximately twice
